Measured values reported in patent publication US12466818B2, “Thienyl-aniline compounds for treatment of dermal disorders” (NFlection Therapeutics, Inc., priority 2018, dated 2025).
Where a name gives a salt, the structure may show the parent alone.

Experiments:
[1] = system: A375 cells; assay: Assay 2: A375 (BRAF) GI50 cell-based assay (Cell Titer-Glo); conditions: Homo sapiens, A-375, 72 hours
Protocol: (§1) Alternatively, the following procedure can be used to measure cell-based activity. Test compounds were dissolved in DMSO in 10 mM stock. Cell Titer-Glo® 2.0 Luminescent cell viability assay reagent was purchased from Promega (Madison, WI). A375 and HCT116 cell lines were purchased from American Type Culture Collection (Manassas, VA). For A375 cells, cell culture media was DMEM+10% FBS. For HCT116 cells, cell culture media was McCoy's 5A+10% FBS. All media were supplemented with 100 μg/mL of penicillin, and 100 μg/mL of streptomycin. Cultures were maintained at 37° C. in a humidified atmosphere of 5% CO2 and 95% air.
(§2) Test compounds were diluted in DMSO solution with 10-dose and 3-fold dilutions in a source plate starting at 10 mM. 25 nL of each test compound was delivered from the source plate to each well of the 384-well cell culture plates (T=Final) by Echo 550. 25 μL of culture medium containing 2000 of A375 or HCT116 cells was added to each of the wells in duplicates of the cell culture plates (T=0 and T=Final). 25 μL of Cell Titer Glo 2.0 reagent was added to each well of cell culture plate (T=0). The contents were mixed on an orbital shaker for 2 min and incubated at room temperature for 15 min to stabilize luminescent signal. Luminescence was recorded by Envision 2104 Multilabel Reader (PerkinElmer, Santa Clara, CA). The number of viable cells in culture was determined based on quantitation of the ATP present in each culture well. The cells in cell culture plate (T=Final) were incubated with the compounds at 37° C., 5% CO2 for 72 hours. 25 μL of Cell Titer Glo 2.0 reagent was added to each well. The contents were mixed on an orbital shaker for 2 min and incubated at room temperature for 15 min to stabilize luminescent signal. Luminescence was recorded by Envision 2104 Multilabel Reader (PerkinElmer, Santa Clara, CA). The number of viable cells in culture was determined based on quantitation of the ATP present in each culture well. The GI50 curves were plotted using the GraphPad Prism 4 program based on a sigmoidal dose-response equation Y=Bottom+(Top-Bottom)/(1+10^((Log EC50−X)*HillSlope)). All parameters in the equation were calculated by GraphPad Prism 4 program. […] Accordingly, GI50 is the value of 10^X, where X was calculated by the Curve Fitting Equation when Y=50 using Excel.
Assay 2 is the A375 (BRAF) GI50 (nM) cell-based assay as described in Example 39. A2 indicates an IC50 of less than or equal to 1 μM, and B2 indicates an IC50 of greater than 1 μM and less than or equal to 2 μM.

[2] = system: HCT116 cells; assay: Assay 3: HCT116 (Kras) GI50 assay (Cell Titer-Glo); assay type: cell-based; conditions: Homo sapiens, HCT-116, 72 hours
Protocol: as §1, §2
Assay 3 is the HCT116 (Kras) GI50 (nM) assay as described in Example 39. A3 indicates an IC50 of less than or equal to 5 μM, and B3 indicates an IC50 of greater than 5 μM and less than or equal to 10 μM.

[3] = Assay 4: liver S9 half-life stability assay; assay type: in vitro ADME; conditions: liver S9 fraction, pH 7.4; human liver S9, 1 μM test compound, NADPH
Protocol: (§3) Compounds can be assessed for metabolic stability in human skin by assessing their rate of disappearance from human S9 skin fraction. Similarly, compounds can be assessed for metabolic stability in human liver by assessing their rate of disappearance from human S9 liver fraction. The protocol below is used to assess the difference between skin and hepatic metabolism.
(§4) The assay was carried out in 96-well microtiter plates at 37° C. Reaction mixtures (25 μL) contained a final concentration of 1 μM test compound, 2 mg/mL liver or skin protein, and 1 mM NADPH in buffer (100 mM potassium phosphate, pH 7.4 buffer with 1 mM EDTA, 3 mM MgCl2). At each of the time points (0, 15, 30, and 60 minutes), 150 μL, of quench solution (100% acetonitrile with 0.1% formic acid) with internal standard was transferred to each well. […]
(§5) All samples were analyzed on LC/MS/MS using an AB Sciex API 4000 instrument, coupled to a Shimadzu LC-20AD LC Pump system. […]
(§6) The extent of metabolism was calculated as the disappearance of the test compound, compared to the 0-min control reaction incubations. Initial rates were calculated for the compound concentration and used to determine tin values and subsequently, the intrinsic clearance, CLint=(0.693)(1/t1/2 (min)) (mL incubation/mg of S9 protein). […]

[4] = Assay 5: skin S9 half-life stability assay; assay type: in vitro ADME; conditions: skin S9 fraction, pH 7.4; human skin S9, 1 μM test compound, NADPH
Protocol: as §3, §4, §5, §6

[5] = Assay 6: liver microsomes half-life stability assay; assay type: in vitro ADME; conditions: pH 7.4; human liver microsomes, 1 μM test compound, NADPH
Protocol: Metabolic stability of testing compound can be evaluated using human liver microsomes to predict intrinsic clearance. Human liver microsomes are obtained from Corning Gentest.
The assay was carried out in 96-well microtiter plates at 37° C. Reaction mixtures (25 μL) contain a final concentration of 1 μM test compound, 0.5 mg/mL liver microsomes protein, and 1 mM NADPH in buffer (100 mM potassium phosphate, pH 7.4 buffer with 3 mM MgCl2). At each of the time points (0, 15, 30, and 60 minutes), 150 μL of quench solution (100% acetonitrile with 0.1% formic acid) with internal standard was transferred to each well. Verapamil was included as a positive control to verify assay performance. Plates were sealed and centrifuged at 4° C. for 15 minutes at 4000 rpm. The supernatant was transferred to fresh plates for LC/MS/MS analysis.
as §5
as §6, with “time incubation.” for “control reaction incubations.”, “t1/2” for “tin”, “(min))(g of liver/kg of body weight)(mL” for “(min)) (mL”, “microsomal protein)(45 mg of microsomal protein/g of liver weight).” for “S9 protein).”

[6] = target: MEK1 (Homo sapiens (Human), UniProt Q02750); assay: MEK Inhibition Assay-2 (Z'-LYTE biochemical assay); conditions: Z'-LYTE assay of Example 37; read-out: IC50 against MEK1
Protocol: MEK1 inhibitory activity of compounds were tested using the following procedure (protocol available at thermofisher.com/content/dam/LifeTech/migration/files/drug-discovery/pdfs.par.60256.file.dat/20130430%20ssbk %20customer %20protocol %20 and %20assa y %20conditions.pdf). The Z′-LYTE biochemical assay (ThermoFisher) employs a fluorescence-based, coupled-enzyme format and is based on the differential sensitivity of phosphorylated and non-phosphorylated peptides to proteolytic cleavage.
Test compounds in 100% DMSO were screened in 1% DMSO (final) in the well. For 10 point titrations, 3-fold serial dilutions are conducted from the starting concentration of 30 μM.
After the 1 hour incubation, 5 μL of a 1:1024 dilution of Development Reagent A (available from Invitrogen, catalog no. PV3295) was added.
ATP solutions were diluted to a 4× working concentration in Kinase Buffer (50 mM HEPES pH 7.5, 0.01% BRIJ-35, 10 mM MgCl2, 1 mM EGTA). ATP Km apparent was previously determined using a Z′-LYTE assay. The Development Reagent was diluted in Development Buffer (available from Invitrogen, catalog no. P3127).
Assay Protocol: 2.5 μL of 4× test compound or 100 nL of 100× Test Compound plus 2.4 μL Kinase Buffer, 5 μL of the 2× Peptide/Kinase Mixture, 2.5 μL of 4×ATP Solution were added to the plates and placed on a shake plate for 30-seconds. The kinase reaction was allowed to proceed for 60-minute at room temperature, before 5 μL of Development Reagent Solution was added, and the mixture agitated for 30-seconds on a shake plate. The mixture was incubated for 60-minute at room temperature. Fluorescence was measured using a plate reader and the data were analyzed.
This control yielded 100% cleaved peptide in the Development Reaction. The 100% Phosphorylation Control, which consisted of a synthetically phosphorylated peptide of the same sequence as the peptide substrate, was designed to allow for the calculation of percent phosphorylation. This control yielded a very low percentage of cleaved peptide in the Development Reaction. The 0% Phosphorylation and 100% Phosphorylation Controls allow for the calculation of the percent phosphorylation achieved in a specific reaction well.
The minimum emission ratio in a screen was established by the 0% Inhibition Control, which contained active kinase. This control was designed to produce a 10-50% phosphorylated peptide in the Kinase Reaction. Cascade assays may produce up to 70% phosphorylated peptide.
A known inhibitor control standard curve, 10 point titration, was run for each individual kinase on the same plate as the kinase to ensure the kinase was inhibited within an expected IC50 range previously determined.
The following controls are prepared for each concentration of Test Compound assayed. […] The expected value for a non-interfering compound should be 100%. Any value outside of 90% to 110% was flagged. […] The expected value for a non-fluorescence compound should be 0%. Any value>20% was flagged.
The data in Table A was calculated. XLfit from IDBS was used. The dose response curve was curve fit to model number 205 (sigmoidal dose-response model).
Table 3 lists the MEK1 inhibition assay results of selected compounds according to the above procedure.

Chain of MEK1 (Q02750 whole entry): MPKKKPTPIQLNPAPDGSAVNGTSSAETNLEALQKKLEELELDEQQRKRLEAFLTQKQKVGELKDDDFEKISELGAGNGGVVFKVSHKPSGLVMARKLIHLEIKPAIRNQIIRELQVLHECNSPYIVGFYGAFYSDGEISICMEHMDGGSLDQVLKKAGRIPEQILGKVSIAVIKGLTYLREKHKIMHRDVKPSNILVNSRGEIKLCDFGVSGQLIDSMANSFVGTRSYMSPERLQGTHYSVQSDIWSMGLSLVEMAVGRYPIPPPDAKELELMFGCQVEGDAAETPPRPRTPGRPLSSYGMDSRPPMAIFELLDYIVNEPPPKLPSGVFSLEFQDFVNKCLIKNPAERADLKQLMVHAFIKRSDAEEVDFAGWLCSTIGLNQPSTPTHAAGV

Compound	GI50 [1] [µM]	GI50 [2] [µM]	IC50 [6] [µM]	further results
CC(=O)c1sc(Nc2ccc(I)cc2F)c(C(=O)NOCCO)c1C [Compound 1.013, 5-Acetyl-2-((2-fluoro-4-iodophenyl)amino)-N-(2-hydroxyethoxy)-4-methylthiophene-3-carboxamide]	≤ 1	≤ 5		half-life at 1 μM [3]: ≤ 50 min; half-life at 1 μM [4]: ≥ 400 min; half-life at 1 μM [5]: ≤ 50 min
CC(=O)c1sc(Nc2ccc(I)cc2F)c(C(=O)N[C@@H]2CCCNC2)c1C [Compound 1.016, (R)-5-acetyl-2-((2-fluoro-4-iodophenyl)amino)-4-methyl-N-(piperidin-3-yl)thiophene-3-carboxamide]	1 to 2	≤ 5		
CC(=O)c1sc(Nc2ccc(I)cc2F)c(C(=O)N[C@@H]2CCNC2)c1C [Compound 1.017, (R)-5-acetyl-2-((2-fluoro-4-iodophenyl)amino)-4-methyl-N-(pyrrolidin-3-yl)thiophene-3-carboxamide]	1 to 2	≤ 5		
CC(=O)c1sc(Nc2ccc(I)cc2F)c(C(=O)NCC(C)(C)N)c1C [Compound 1.020]	≤ 1	5 to 10		
CC(=O)c1sc(Nc2ccc(I)cc2F)c(C(=O)NOCC2CC2)c1C [Compound 1.023]	≤ 1	5 to 10		
O=C1CCCc2c1sc(Nc1ccc(I)cc1F)c2C(=O)NOCC1CC1 [Compound 1.032, N-(Cyclopropylmethoxy)-2-((2-fluoro-4-iodophenyl)amino)-7-oxo-4,5,6,7-tetrahydrobenzo[b]thiophene-3-carboxamide]	≤ 1	≤ 5	≤ 0.15	

More lines, main results first:

GI50 [1] [µM]	GI50 [2] [µM]	IC50 [6] [µM]	Compound	further results
		≤ 0.15	O=C1CCCc2c1sc(Nc1ccc(I)cc1F)c2C(=O)NOC[C@H](O)CO [Compound 1.030, (R)—N-(2,3-Dihydroxypropoxy)-2-((2-fluoro-4-iodophenyl)amino)-7-oxo-4,5,6,7-tetrahydrobenzo[b]thiophene-3-carboxamide]	
		≤ 0.15	NCCONC(=O)c1c(Nc2ccc(I)cc2F)sc2c1CCCC2=O [Compound 1.033, N-(2-Aminoethoxy)-2-(2-fluoro-4-iodophenylamino)-7-oxo-4,5,6,7-tetrahydrobenzo[b]thiophene-3-carboxamide hydrochloride]	
		≤ 0.15	O=C1CCCc2c1sc(Nc1ccc(I)cc1F)c2C(=O)NC[C@H](O)CO [Compound 1.034, (S)—N-(2,3-dihydroxypropyl)-2-((2-fluoro-4-iodophenyl)amino)-7-oxo-4,5,6,7-tetrahydrobenzo[b]thiophene-3-carboxamide]	
		≤ 0.15	O=C1CCCc2c1sc(Nc1ccc(I)cc1F)c2C(=O)NC[C@@H](O)CO [Compound 1.035, (R)—N-(2,3-dihydroxypropyl)-2-((2-fluoro-4-iodophenyl)amino)-7-oxo-4,5,6,7-tetrahydrobenzo[b]thiophene-3-carboxamide]	
